Measurements: ChEMBL document CHEMBL1201862, “PubChem BioAssay data set” (2004)
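Step 1: Grow cells in 96-well plates. Step 2: Expose to compound for 48 hours at 5 concentrations. Step 3: Interpolate endpoints linearly; if unreached, use highest concentration. Abbreviation: GI50, concentration required for 50% inhibition of growth.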 The source made the active and inactive calls. No stated cut-off is given here; in the data, active = GI50 up to about 1.1 µM and inactive = higher.

Legend:
Experiment in all cases: growth of human tumour cells (NCI), 48 h
[1] = test system: KM12
[2] = test system: CCRF-CEM
[3] = test system: HOP-92
[4] = test system: HCC 2998
[5] = test system: UO-31
[6] = test system: SK-MEL-2
[7] = test system: T47D
[8] = test system: SF-268
[9] = test system: A498
[10] = test system: HCT-116
[11] = test system: OVCAR-3
[12] = test system: K562
[13] = test system: PC-3
[14] = test system: SNB-19
[15] = test system: RXF 393
[16] = test system: OVCAR-5
[17] = test system: SF-295
[18] = test system: Malme-3M
[19] = test system: SNB-75
[20] = test system: RPMI-8226
[21] = test system: Hs-578T
[22] = test system: MCF7
[23] = test system: UACC-62
[24] = test system: A549
[25] = test system: OVCAR-4
[26] = test system: MOLT-4
[27] = test system: IGROV-1
[28] = test system: SN12C
[29] = test system: BT-549
[30] = test system: UACC-257
[31] = test system: HL-60
[32] = test system: TK-10
[33] = test system: SK-MEL-5
[34] = test system: HCT-15
[35] = test system: MDA-N
[36] = test system: SK-MEL-28
[37] = test system: EKVX
[38] = test system: LOX IMVI
[39] = test system: MDA-MB-435
[40] = test system: OVCAR-8
[41] = test system: U-251
[42] = test system: SF-539
[43] = test system: ACHN
[44] = test system: SW-620
[45] = test system: COLO 205
[46] = test system: DU-145
[47] = test system: NCI-H522
[48] = test system: CAKI-1
[49] = test system: NCI/ADR-RES
[50] = test system: SR
[51] = test system: M14
[52] = test system: 786-0
[53] = test system: NCI-H460
[54] = test system: MDA-MB-231
[55] = test system: NCI-H226

COc1ccc(CNNC(=O)c2cc[n+]([BH2-]C#N)cc2)cc1OC
GI50 [1]: > 100 µM (inactive)
GI50 [2]: > 100 µM (inactive)
GI50 [3]: > 100 µM (inactive)
GI50 [4]: > 100 µM (inactive)
GI50 [5]: > 100 µM (inactive)
GI50 [6]: > 100 µM (inactive)
GI50 [7]: > 100 µM (inactive)
GI50 [8]: > 100 µM (inactive)
GI50 [9]: > 100 µM (inactive)
GI50 [10]: > 100 µM (inactive)
GI50 [11]: > 100 µM (inactive)
GI50 [12]: > 100 µM (inactive)
GI50 [13]: > 100 µM (inactive)
GI50 [14]: > 100 µM (inactive)
GI50 [15]: > 100 µM (inactive)
GI50 [16]: > 100 µM (inactive)
GI50 [17]: > 100 µM (inactive)
GI50 [18]: > 100 µM (inactive)
GI50 [19]: > 100 µM (inactive)
GI50 [20]: > 100 µM (inactive)
GI50 [21]: > 100 µM (inactive)
GI50 [22]: > 100 µM (inactive)
GI50 [23]: > 100 µM (inactive)
GI50 [24]: > 100 µM (inactive)
GI50 [25]: > 100 µM (inactive)
GI50 [26]: > 100 µM (inactive)
GI50 [27]: > 100 µM (inactive)
GI50 [28]: > 100 µM (inactive)
GI50 [29]: > 100 µM (inactive)
GI50 [30]: > 100 µM (inactive)
GI50 [31]: > 100 µM (inactive)
GI50 [32]: > 100 µM (inactive)
GI50 [33]: > 100 µM (inactive)
GI50 [34]: > 100 µM
GI50 [35]: > 100 µM (inactive)
GI50 [36]: > 100 µM (inactive)
GI50 [37]: > 100 µM (inactive)
GI50 [38]: > 100 µM (inactive)
GI50 [39]: > 100 µM (inactive)
GI50 [40]: > 100 µM (inactive)
GI50 [41]: > 100 µM (inactive)
GI50 [42]: > 100 µM (inactive)
GI50 [43]: > 100 µM (inactive)
GI50 [44]: > 100 µM (inactive)
GI50 [45]: > 100 µM (inactive)
GI50 [46]: > 100 µM (inactive)
GI50 [47]: > 100 µM (inactive)
GI50 [48]: > 100 µM (inactive)
GI50 [49]: > 100 µM (inactive)
GI50 [50]: > 100 µM (inactive)
GI50 [51]: > 100 µM (inactive)
GI50 [52]: > 100 µM (inactive)
GI50 [53]: > 100 µM (inactive)
GI50 [54]: > 100 µM (inactive)
GI50 [55]: > 100 µM (inactive)
